Experimental findings from ChEMBL document CHEMBL5136992, “Fascinating Transformation of SAM-Competitive Protein Methyltransferase Inhibitors from Nucleoside Analogues to Non-Nucleoside Analogues” (J Med Chem, 2022) are described below.

Structures are written as SMILES. Where only a bound is given, the exact number is not on record here.

The target of data set [1] is T1, Histone-lysine N-methyltransferase SMYD3 (Homo sapiens, UniProt Q9H7B4).
T1 sequence (Q9H7B4 whole entry): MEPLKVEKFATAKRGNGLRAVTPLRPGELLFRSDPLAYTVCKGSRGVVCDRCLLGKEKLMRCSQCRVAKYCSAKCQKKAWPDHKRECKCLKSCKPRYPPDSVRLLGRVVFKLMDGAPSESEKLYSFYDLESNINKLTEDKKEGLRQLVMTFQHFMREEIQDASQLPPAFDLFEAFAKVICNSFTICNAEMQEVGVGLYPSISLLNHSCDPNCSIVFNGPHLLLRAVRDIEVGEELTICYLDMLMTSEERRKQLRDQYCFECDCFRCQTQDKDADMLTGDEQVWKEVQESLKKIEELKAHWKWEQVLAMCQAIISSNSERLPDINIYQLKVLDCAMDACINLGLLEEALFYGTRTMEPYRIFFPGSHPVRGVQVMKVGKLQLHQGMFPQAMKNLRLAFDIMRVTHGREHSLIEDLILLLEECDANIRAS
In words: Inhibition of SMYD3 (unknown origin).

Data set [2] is described as follows: Microsomal stability in rat liver microsomes assessed as remaining compound after 1 hr incubation. In kind it is ADME, Microsome. Conditions: read-out: Stability. (In general: Liver microsomes are vesicles of endoplasmic reticulum, rich in cytochrome P450 enzymes.)
Data set [3] has as its target T2, Protein arginine N-methyltransferase 7 (Homo sapiens, UniProt Q9NVM4).
T2 sequence (Q9NVM4 whole entry): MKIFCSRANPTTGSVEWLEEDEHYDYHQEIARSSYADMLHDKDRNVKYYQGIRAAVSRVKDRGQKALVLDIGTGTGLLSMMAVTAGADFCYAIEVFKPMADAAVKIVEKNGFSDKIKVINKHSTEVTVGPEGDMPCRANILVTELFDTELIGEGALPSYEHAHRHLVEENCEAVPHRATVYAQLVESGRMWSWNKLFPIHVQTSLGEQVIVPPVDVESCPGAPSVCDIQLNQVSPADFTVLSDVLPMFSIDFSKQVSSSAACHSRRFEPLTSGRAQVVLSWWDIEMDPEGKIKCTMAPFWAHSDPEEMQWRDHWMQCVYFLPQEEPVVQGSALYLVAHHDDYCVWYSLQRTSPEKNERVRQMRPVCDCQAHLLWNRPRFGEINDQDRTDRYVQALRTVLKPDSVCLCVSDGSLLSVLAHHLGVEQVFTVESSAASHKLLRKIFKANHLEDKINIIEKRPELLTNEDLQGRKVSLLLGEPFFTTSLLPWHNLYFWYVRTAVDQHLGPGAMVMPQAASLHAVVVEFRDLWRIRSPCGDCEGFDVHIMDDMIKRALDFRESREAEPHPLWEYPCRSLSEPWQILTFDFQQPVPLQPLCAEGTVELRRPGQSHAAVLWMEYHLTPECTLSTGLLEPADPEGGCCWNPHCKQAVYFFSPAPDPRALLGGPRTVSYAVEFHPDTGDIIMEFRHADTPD
As to the kind of experiment: Inhibition of PRMT7 (unknown origin).

For data set [4], the target named is Histone-lysine N-methyltransferase SETD2 (Homo sapiens, UniProt Q9BYW2). In words: Inhibition of SETD2 (unknown origin).
Data set [5] deals with Protein arginine N-methyltransferase 5 (Homo sapiens, UniProt O14744). As to the kind of experiment: Binding affinity to PRMT5 (unknown origin) assessed as inhibition constant.
Sequence of Protein arginine N-methyltransferase 5 (O14744 whole entry): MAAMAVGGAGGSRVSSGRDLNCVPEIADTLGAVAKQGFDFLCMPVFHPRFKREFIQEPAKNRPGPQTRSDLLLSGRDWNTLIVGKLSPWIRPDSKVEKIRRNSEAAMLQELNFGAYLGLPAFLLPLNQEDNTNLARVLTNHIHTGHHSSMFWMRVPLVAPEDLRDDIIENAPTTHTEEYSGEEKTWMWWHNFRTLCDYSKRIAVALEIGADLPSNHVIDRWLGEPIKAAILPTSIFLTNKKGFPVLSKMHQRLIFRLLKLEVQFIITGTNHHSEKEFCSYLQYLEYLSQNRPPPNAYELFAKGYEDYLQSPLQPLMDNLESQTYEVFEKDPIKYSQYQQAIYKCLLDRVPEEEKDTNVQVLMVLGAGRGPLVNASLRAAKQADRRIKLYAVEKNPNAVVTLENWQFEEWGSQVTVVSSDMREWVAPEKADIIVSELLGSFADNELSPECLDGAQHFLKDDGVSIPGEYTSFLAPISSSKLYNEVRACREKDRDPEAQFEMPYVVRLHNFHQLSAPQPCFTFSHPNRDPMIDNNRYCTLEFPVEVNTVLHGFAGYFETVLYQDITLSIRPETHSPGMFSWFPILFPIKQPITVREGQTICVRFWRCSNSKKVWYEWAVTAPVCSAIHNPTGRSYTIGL

Sequence of Histone-lysine N-methyltransferase SETD2 (Q9BYW2 whole entry): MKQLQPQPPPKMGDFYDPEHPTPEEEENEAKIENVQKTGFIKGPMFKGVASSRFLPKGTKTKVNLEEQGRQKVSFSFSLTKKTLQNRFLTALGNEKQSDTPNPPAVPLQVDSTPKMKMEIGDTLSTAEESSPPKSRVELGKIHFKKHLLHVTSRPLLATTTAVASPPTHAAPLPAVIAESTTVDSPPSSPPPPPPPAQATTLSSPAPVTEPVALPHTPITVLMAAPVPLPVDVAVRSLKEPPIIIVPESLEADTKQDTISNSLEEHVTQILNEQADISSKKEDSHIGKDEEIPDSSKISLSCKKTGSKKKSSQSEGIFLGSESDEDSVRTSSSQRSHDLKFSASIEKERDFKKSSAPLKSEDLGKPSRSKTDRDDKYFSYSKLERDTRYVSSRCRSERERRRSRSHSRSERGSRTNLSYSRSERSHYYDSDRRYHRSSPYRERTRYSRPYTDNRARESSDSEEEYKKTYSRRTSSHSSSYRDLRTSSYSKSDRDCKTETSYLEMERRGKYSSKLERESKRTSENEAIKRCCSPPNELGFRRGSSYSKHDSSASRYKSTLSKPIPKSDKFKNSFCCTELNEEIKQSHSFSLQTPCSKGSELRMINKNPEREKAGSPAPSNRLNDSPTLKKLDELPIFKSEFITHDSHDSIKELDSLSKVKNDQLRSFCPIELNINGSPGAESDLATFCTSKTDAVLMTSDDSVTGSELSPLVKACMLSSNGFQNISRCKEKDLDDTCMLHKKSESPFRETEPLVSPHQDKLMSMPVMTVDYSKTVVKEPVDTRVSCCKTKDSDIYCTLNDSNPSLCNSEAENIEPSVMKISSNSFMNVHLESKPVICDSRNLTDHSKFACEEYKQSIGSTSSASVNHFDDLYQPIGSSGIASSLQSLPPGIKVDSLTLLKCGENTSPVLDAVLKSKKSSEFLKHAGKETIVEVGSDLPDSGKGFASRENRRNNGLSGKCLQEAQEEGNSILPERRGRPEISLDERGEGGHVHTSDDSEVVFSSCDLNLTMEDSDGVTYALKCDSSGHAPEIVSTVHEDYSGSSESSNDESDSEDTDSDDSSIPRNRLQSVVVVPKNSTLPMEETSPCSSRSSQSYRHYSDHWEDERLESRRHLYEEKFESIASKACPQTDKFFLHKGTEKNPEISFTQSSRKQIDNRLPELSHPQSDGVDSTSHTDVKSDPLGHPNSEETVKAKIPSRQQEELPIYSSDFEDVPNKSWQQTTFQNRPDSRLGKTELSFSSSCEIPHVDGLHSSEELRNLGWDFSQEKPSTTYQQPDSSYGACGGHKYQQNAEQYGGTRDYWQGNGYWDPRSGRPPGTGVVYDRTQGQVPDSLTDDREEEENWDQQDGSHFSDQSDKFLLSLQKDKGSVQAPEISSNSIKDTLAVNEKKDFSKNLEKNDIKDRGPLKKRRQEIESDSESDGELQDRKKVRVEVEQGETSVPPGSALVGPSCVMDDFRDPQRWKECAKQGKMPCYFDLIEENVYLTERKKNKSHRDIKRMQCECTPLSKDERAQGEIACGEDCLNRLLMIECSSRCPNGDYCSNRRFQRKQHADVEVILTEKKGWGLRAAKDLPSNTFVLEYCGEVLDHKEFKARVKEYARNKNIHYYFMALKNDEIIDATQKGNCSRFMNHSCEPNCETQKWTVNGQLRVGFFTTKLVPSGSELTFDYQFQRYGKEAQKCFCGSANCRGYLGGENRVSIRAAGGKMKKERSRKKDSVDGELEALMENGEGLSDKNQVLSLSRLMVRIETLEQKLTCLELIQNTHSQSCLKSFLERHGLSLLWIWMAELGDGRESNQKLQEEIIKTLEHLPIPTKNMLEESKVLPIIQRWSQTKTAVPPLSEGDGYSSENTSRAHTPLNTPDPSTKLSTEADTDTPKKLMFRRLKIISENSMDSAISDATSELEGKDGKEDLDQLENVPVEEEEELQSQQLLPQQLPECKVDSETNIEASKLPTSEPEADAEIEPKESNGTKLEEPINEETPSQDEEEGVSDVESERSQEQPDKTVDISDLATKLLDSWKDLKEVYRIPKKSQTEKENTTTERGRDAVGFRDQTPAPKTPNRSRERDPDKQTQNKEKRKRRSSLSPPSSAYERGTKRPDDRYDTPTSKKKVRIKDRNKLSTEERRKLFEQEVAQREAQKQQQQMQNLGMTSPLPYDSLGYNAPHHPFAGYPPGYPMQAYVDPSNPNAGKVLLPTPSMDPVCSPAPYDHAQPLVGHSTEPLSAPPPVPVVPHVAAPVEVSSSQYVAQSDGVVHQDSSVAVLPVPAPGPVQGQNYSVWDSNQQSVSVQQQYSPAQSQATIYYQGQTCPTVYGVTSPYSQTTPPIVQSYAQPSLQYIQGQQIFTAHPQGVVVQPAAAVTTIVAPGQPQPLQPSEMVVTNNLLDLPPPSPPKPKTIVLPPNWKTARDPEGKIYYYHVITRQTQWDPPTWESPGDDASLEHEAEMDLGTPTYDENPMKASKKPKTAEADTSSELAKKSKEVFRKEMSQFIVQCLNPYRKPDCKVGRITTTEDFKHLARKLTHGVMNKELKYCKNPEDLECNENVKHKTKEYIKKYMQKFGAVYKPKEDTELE

Take `CN(C)CCCN(CC[C@H](N)C(=O)O)C[C@@H]1O[C@H](n2cnc3c(N)ncnc32)[C@@H](O)[C@H]1O`: 130 nM corresponded to half-maximal inhibition in data set [1] (IC50).
As for `COc1cccc(CCNC(=O)[C@H](CC[C@@H](CNCc2ccccc2)C[C@H]2O[C@@H](n3cnc4c(N)ncnc43)[C@H](O)[C@@H]2O)NC(=O)CC(C)(C)C2=C(C)C(=O)C(C)=C(C)C2=O)c1`, the remaining at 1 h in data set [2] was found to be 24%.
On to `Nc1ncnc2c1ncn2[C@@H]1O[C@H](CSCCCCNCc2cccc(-c3ccc(Cl)cc3)c2)[C@@H](O)[C@H]1O`, for which the IC50 (usually the midpoint of a concentration-inhibition curve) in data set [3] is less than 2.5 nM.
In data set [4], `CCCN(CC[C@H](N)C(=O)O)C[C@@H]1O[C@H](n2cnc3c(N)ncnc32)[C@@H](O)[C@H]1O` had a half-maximal inhibitory concentration (IC50) of 800 nM.
Regarding `Nc1ncnc2c1ccn2[C@H]1O[C@@H]([C@H](O)c2ccc(Cl)c(F)c2)[C@H](O)[C@@H]1O`, the inhibitory constant (Ki) (in general, the equilibrium dissociation constant of an inhibitor or competing ligand from its target) in data set [5] was determined as 0.02 nM.
